Test results reported in US8399465B2, “Compounds with two fused bicyclic heteroaryl moieties as modulators of leukotriene A4 hydrolase” (Janssen Pharmaceutica NV, priority 2009, dated 2013).
Structures can show the parent of a compound that is named as a salt. Where two headings read alike, the source gives them in different places.

Columns and labels:
[1] = tested on: arachidonic acid-induced neutrophil influx in murine ear tissue; assay: Murine arachidonic acid-induced inflammation model: neutrophil influx (myeloperoxidase) in ear; type: in vivo, Balb/c mice; settings: Mus musculus, read-out: % Inh. MPO
[2] = tested on: LTB4 production in murine blood (LTA4H); assay: LTB4 production by calcium ionophore-stimulated murine blood for LTA4H inhibitor activity; type: cell-based, CD-1 mice; settings: Mus musculus; murine blood diluted 1 in 15, A23187 stimulated; single determination or average; mark after value = form tested: ′ free base, ″ hydrochloride, ^ formate; read-out: IC50
In short: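 LTB4 was measured by ELISA in supernatants after calcium ionophore A23187 stimulation (final 7 μg/mL, 30 min, 37° C) of CD-1 mouse blood collected on heparin. Compound was preincubated with the blood for 15 min beforehand. Values come from one determination or average several.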

[3] = tested on: ex vivo calcium ionophore-stimulated LTB4 production in whole blood; assay: Murine arachidonic acid-induced inflammation model: ex vivo stimulated LTB4 production in blood; parameters: species or system Balb/c mice; settings: Mus musculus; 30 mg/kg oral gavage; blood diluted 1:1, A23187 stimulated ex vivo; percent inhibition of LTB4 production; read-out: % Inh. LTB4
[4] = target: T1, recombinant human LTA4 hydrolase (rhLTA4H) (Homo sapiens, UniProt P09960); assay: Recombinant human LTA4 hydrolase assay for LTA4 hydrolase inhibitor activity; type: biochemical; settings: rhLTA4H, LTB4 by immunoassay; single determination or average of two or more; mark after value = form tested: ′ free base, ″ hydrochloride, ^ formate; read-out: IC50
T1 construct: made in house; host or cells: Spodoptera frugiperda (Sf-9) cells, baculovirus (pFastBac1)
T1 sequence (P09960 1-611): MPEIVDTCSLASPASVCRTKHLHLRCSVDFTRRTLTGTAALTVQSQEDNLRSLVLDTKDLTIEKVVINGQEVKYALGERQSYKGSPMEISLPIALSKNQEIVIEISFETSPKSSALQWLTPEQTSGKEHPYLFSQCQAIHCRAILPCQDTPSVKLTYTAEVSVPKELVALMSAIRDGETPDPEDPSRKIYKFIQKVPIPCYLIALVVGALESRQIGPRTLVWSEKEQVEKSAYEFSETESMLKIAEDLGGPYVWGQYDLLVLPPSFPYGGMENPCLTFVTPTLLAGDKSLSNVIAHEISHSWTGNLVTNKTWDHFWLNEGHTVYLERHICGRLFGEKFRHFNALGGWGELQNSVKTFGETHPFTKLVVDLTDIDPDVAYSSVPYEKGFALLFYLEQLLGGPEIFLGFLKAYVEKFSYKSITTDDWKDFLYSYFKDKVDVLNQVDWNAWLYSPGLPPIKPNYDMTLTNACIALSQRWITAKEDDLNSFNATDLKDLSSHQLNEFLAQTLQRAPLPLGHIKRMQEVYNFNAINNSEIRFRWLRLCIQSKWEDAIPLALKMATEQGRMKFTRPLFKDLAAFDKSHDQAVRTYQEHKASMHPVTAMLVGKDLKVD
In short: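 LTB4 formation, measured by enzyme immunoassay, was the read-out. The enzyme, recombinant human LTA4H expressed in Sf-9 insect cells (10 ng per reaction), was exposed to compound for 10 min at room temperature before hydrolysed-ester LTA4 substrate was added for 30 min. Enzyme-free negatives were included.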

[5] = 30 mg/kg oral gavage, 60 min before topical arachidonic acid, ear biopsy after 3 h, percent inhibition of neutrophil influx

| SMILES | IC50 [2] [nM] | IC50 [4] [nM] | inhibition at 30 mg/kg [1, 5] [%] | inhibition at 30 mg/kg [3] [%] | inhibition at 30 mg/kg ([1]; Neutrophil) [%] |
| --- | --- | --- | --- | --- | --- |
| CC(=O)N1C[C@@H]2C[C@H]1CN2Cc1cc2cc(Oc3nc4ncccc4s3)ccc2o1 [Example 95, (1S,4S)-1-{5-[5-(Thiazolo[4,5-b]pyridin-2-yloxy)-benzofuran-2-ylmethyl]-2,5-diaza-bicyclo[2.2.1]hept-2-yl}-ethanone] | 26 | 5 | 79 | 80 |  |
| O=C1CCCN1C1CCN(Cc2coc3cc(Oc4nc5ncccc5s4)ccc23)CC1 [Example 215, 1-{1-[6-(Thiazolo[4,5-b]pyridin-2-yloxy)-benzofuran-3-ylmethyl]-piperidin-4-yl}-pyrrolidin-2-one] | 21 | 3 | 78 | 88 |  |
| CC(=O)N1C[C@@H]2C[C@H]1CN2Cc1coc2cc(Oc3nc4ncccc4s3)ccc12 [Example 154, (1S,4S)-1-{5-[6-(Thiazolo[4,5-b]pyridin-2-yloxy)-benzofuran-3-ylmethyl]-2,5-diaza-bicyclo[2.2.1]hept-2-yl}-ethanone] | 26 | 7 | 83 | 83 |  |
| CC(C)(C)C(=O)NC1CCN(Cc2cc3ccc(Oc4nc5ncccc5s4)cc3o2)C1 (stereo not drawn) [Example 236, 2,2-Dimethyl-N-{1-[6-(thiazolo[4,5-b]pyridin-2-yloxy)-benzofuran-2-ylmethyl]-pyrrolidin-3-yl}-propionamide formate] | 190 | 60 |  | 39 | 34 |
| NC(=O)N1C[C@@H]2CC[C@H]1CN2Cc1coc2cc(Oc3nc4ncccc4s3)ccc12 [Example 241, (1S,4S)-5-[6-(Thiazolo[4,5-b]pyridin-2-yloxy)-benzofuran-3-ylmethyl]-2,5-diaza-bicyclo[2.2.2]octane-2-carboxylic acid amide formate] | 69 | 4 |  | 77 | 85 |
| NC(=O)N1C[C@@H]2C[C@H]1CN2Cc1coc2cc(Oc3nc4ncccc4s3)ccc12 [Example 209, (1S,4S)-5-[6-(Thiazolo[4,5-b]pyridin-2-yloxy)-benzofuran-3-ylmethyl]-2,5-diaza-bicyclo[2.2.1]heptane-2-carboxylic acid amide formate] | 54 | 53 |  | 68 | 82 |
| CC(=O)N(C)C1CCN(Cc2coc3cc(Oc4nc5ncccc5s4)ccc23)C1 (stereo not drawn) [Example 309, N-Methyl-N-{1-[6-(thiazolo[4,5-b]pyridin-2-yloxy)-benzofuran-3-ylmethyl]-pyrrolidin-3-yl}-acetamide] | 66 | 5 | 81 | 70 |  |
| CC(=O)N[C@@H]1C[C@H]2CC[C@@H](C1)N2Cc1cc2ccc(Oc3nc4ncccc4s3)cc2o1 [Example 106, meso-exo-N-{8-[6-(Thiazolo[4,5-b]pyridin-2-yloxy)-benzofuran-2-ylmethyl]-8-aza-bicyclo[3.2.1]oct-3-yl}-acetamide] | 14 | 7 | 81 | 85 |  |
| CC(=O)N[C@H]1C[C@@H]2C[C@H]1CN2Cc1cc2cc(Oc3nc4ncccc4s3)ccc2o1 [Example 188, (1S,4S,5S)—N-{2-[5-(Thiazolo[4,5-b]pyridin-2-yloxy)-benzofuran-2-ylmethyl]-2-aza-bicyclo[2.2.1]hept-5-yl}-acetamide] | 63 | 26 | 78 | 73 |  |
| CC(=O)N[C@@H]1C[C@H]2CC[C@@H](C1)N2Cc1cc2cc(Oc3nc4ncccc4s3)ccc2o1 [Example 104, meso-exo-N-{8-[5-(Thiazolo[4,5-b]pyridin-2-yloxy)-benzofuran-2-ylmethyl]-8-aza-bicyclo[3.2.1]oct-3-yl}-acetamide] | 16 | 10 | 92 | 83 |  |

The remaining compounds from weak to strong by IC50 [2], led by results:

| IC50 [2] [nM] | IC50 [4] [nM] | SMILES | inhibition at 30 mg/kg [1, 5] [%] | inhibition at 30 mg/kg [3] [%] | inhibition at 30 mg/kg ([1]; Neutrophil) [%] |
| --- | --- | --- | --- | --- | --- |
| 220 | 88 | CC(=O)N1CCC2(CCN(Cc3cc4cc(Oc5nc6ncccc6s5)ccc4o3)CC2)CC1 [Example 167, 1-{9-[5-(Thiazolo[4,5-b]pyridin-2-yloxy)-benzofuran-2-ylmethyl]-3,9-diaza-spiro[5.5]undec-3-yl}-ethanone] | 77 | 78 |  |
| 202 | 52 | NC(=O)N1C[C@H]2C[C@@H]1CN2Cc1cc2cc(Oc3nc4ncccc4s3)ccc2o1 [Example 101, (1R,4R)-5-[5-(Thiazolo[4,5-b]pyridin-2-yloxy)-benzofuran-2-ylmethyl]-2,5-diaza-bicyclo[2.2.1]heptane-2-carboxylic acid amide] | 65 | 53 |  |
| 160 | 69 | NC(=O)N1C[C@@H]2C[C@H]1CN2Cc1cc2cc(Oc3nc4ncccc4s3)ccc2o1 [Example 100, (1S,4S)-5-[5-(Thiazolo[4,5-b]pyridin-2-yloxy)-benzofuran-2-ylmethyl]-2,5-diaza-bicyclo[2.2.1]heptane-2-carboxylic acid amide] | 33 | 44 |  |
| 110 | 13 | CN(Cc1ccncc1)Cc1coc2cc(Oc3nc4ncccc4s3)ccc12 [Example 177, Methyl-pyridin-4-ylmethyl-[6-(thiazolo[4,5-b]pyridin-2-yloxy)-benzofuran-3-ylmethyl]-amine] | 12 | 70 |  |
| 70 | 5 | NC(=O)NC1CCN(Cc2coc3cc(Oc4nc5ncccc5s4)ccc23)CC1 [Example 240, {1-[6-(Thiazolo[4,5-b]pyridin-2-yloxy)-benzofuran-3-ylmethyl]-piperidin-4-yl}-urea] | 0 | 50 |  |
| 63 | 37 | c1cnc2nc(Oc3ccc4oc(CN5C[C@@H]6C[C@H]5CO6)cc4c3)sc2c1 [Example 99, (1S,4S)-2-[2-(2-Oxa-5-aza-bicyclo[2.2.1]hept-5-ylmethyl)-benzofuran-5-yloxy]-thiazolo[4,5-b]pyridine] | 58 | 15 |  |
| 48 | 28 | O=C(O)C1CCN(Cc2cc3cc(Oc4nc5ccccc5s4)ccc3o2)CC1 [Example 76, 1-[5-(Benzothiazol-2-yloxy)-benzofuran-2-ylmethyl]-piperidine-4-carboxylic acid] | 89 | 85 |  |
| 32 | 6 | c1cnc2nc(Oc3ccc4c(CN5C[C@@H]6C[C@H]5CO6)coc4c3)sc2c1 [Example 158, (1S,4S)-2-[3-(2-Oxa-5-aza-bicyclo[2.2.1]hept-5-ylmethyl)-benzofuran-6-yloxy]-thiazolo[4,5-b]pyridine] | 87 | 95 |  |
| 16 | 8 | CC(=O)N1C[C@H]2C[C@@H]1CN2Cc1coc2cc(Oc3nc4ncccc4s3)ccc12 [Example 157, (1R,4R)-1-{5-[6-(Thiazolo[4,5-b]pyridin-2-yloxy)-benzofuran-3-ylmethyl]-2,5-diaza-bicyclo[2.2.1]hept-2-yl}-ethanone] | 93 | 97 |  |
| 12 | 4 | c1cnc2nc(Oc3ccc4c(CN5CCCC5)coc4c3)sc2c1 [Example 185, 2-(3-Pyrrolidin-1-ylmethyl-benzofuran-6-yloxy)-thiazolo[4,5-b]pyridine] | 64 | 75 |  |
| 12 | 4 | OCC1CCN(Cc2coc3cc(Oc4nc5ncccc5s4)ccc23)CC1 [Example 269, {1-[6-(Thiazolo[4,5-b]pyridin-2-yloxy)-benzofuran-3-ylmethyl]-piperidin-4-yl}-methanol] | 92 | 74 |  |
